From publication PMC6730478, “Discovery of N-(2-Aminophenyl)-4-(bis(2-chloroethyl)amino)Benzamide as a Potent Histone Deacetylase Inhibitor” (Frontiers in Pharmacology, 2019) come the findings set out here.

Some results are limits rather than exact numbers.

One experiment addresses T1, HDAC1 (Homo sapiens, UniProt Q13547).
T1 construct: purchased BPS Bioscience
Kind of experiment: In vitro HDAC inhibitory assay (fluorogenic substrate). The format is biochemical. As for the experimental part:
(§1) All of the HDAC enzymes were bought from BPS Bioscience. In vitro HDAC inhibition assays were conducted as previously described. Briefly, 20 μl of recombinant HDAC enzyme solution (HDAC1−9) was mixed with various concentrations of tested compound (20 μl). The mixture was incubated at 30°C for 1 h (for the time-dependent assay, the mixture was incubated for 15, 30, 60, and 90 min, respectively), and then 10 μl of fluorogenic substrate (Boc-Lys (acetyl)-AMC (3 mM) for HDAC1, 2, 3, and 6, Boc-Lys (trifluoroacetyl)-AMC (3 mM) for HDAC 4, 7, 8, and 9) was added. After incubation at 30°C for 2 h, the catalytic reaction was stopped by addition of 10 μl of developer containing trypsin and trichostatin A (TSA). After 30 min, fluorescence intensity was measured using a microplate reader at excitation and emission wavelengths of 360 and 460 nm, respectively. The inhibition ratios were calculated from the fluorescence intensity readings of tested wells relative to those of control wells, and the IC50 curves and values were determined by GraphPad Prism 6.0 software.

Another experiment deals with T2, HDAC7 (Homo sapiens, UniProt Q8WUI4).
T2 construct: purchased BPS Bioscience
The description is as above. The format is biochemical. As to conditions: n ≥ 2, SD <10% of the mean; read-out: Enzyme inhibitory activity IC50, HDAC7. As for the experimental part: as §1

In another experiment the target is T3, HDAC2 (Homo sapiens, UniProt Q92769).
T3 construct: purchased BPS Bioscience
Kind of experiment: biochemical. As to conditions: n ≥ 2, SD <10% of the mean; read-out: Enzyme inhibitory activity IC50, HDAC2. The method, then: as §1

For a further experiment, the target named is T4, HDAC3 (Homo sapiens, UniProt O15379).
T4 construct: purchased BPS Bioscience
Kind of experiment: biochemical. Conditions: n ≥ 2, SD <10% of the mean; read-out: Enzyme inhibitory activity IC50, HDAC3. As for the experimental part: as §1

The next experiment addresses T5, HDAC4 (Homo sapiens, UniProt P56524).
T5 construct: purchased BPS Bioscience
The experiment in a line: biochemical. As for the experimental part:
as §1

Another experiment has as its target T6, HDAC6 (Homo sapiens, UniProt Q9UBN7).
T6 construct: purchased BPS Bioscience
Kind of experiment: biochemical. As for the experimental part:
as §1

In the next experiment the target is T7, HDAC8 (Homo sapiens, UniProt Q9BY41).
T7 construct: purchased BPS Bioscience
Kind of experiment: biochemical. The method, then: as §1

The next experiment has as its target T8, HDAC9 (Homo sapiens, UniProt Q9UKV0).
T8 construct: purchased BPS Bioscience
The experiment in a line: biochemical. The method, then:
as §1

The next experiment relates to A2780 cells. Kind of experiment: MTT antiproliferative assay. The experiment is classed as cell-based. As to conditions: for IC50: Homo sapiens, A2780, 48 h, read-out: Antiproliferative activity IC50, A2780. The method, then: . The stock solutions of tested compounds were diluted with culture medium. The cells were seeded in 96-well plates at a density 5 × 10^3 cells per well and incubated until confluency of 90–95%, and then each well was treated with 100 µl of medium containing the desired concentrations of tested compounds and incubated for 48 h. MTT working solution of 20 µl (5 mg/ml) was then added to each well and incubated for another 4 h. At the end of incubation, the medium were carefully removed, and 200 µl of DMSO was added. The optical density at 490 and 630 nm was then measured with a microplate reader (Model 680, Bio-Rad). […] The IC50 values were calculated with Origin 7.5 software, and standard deviations of the IC50 values were obtained from at least three independent experiments.
In general terms: Formazan colour is commonly taken as a measure of viable cells.

For another experiment, the system named is A549 cells. The experiment in a line: MTT antiproliferative assay. The experiment is classed as cell-based. As to conditions: Homo sapiens, A549, 48 h, read-out: Antiproliferative activity IC50, A549. The method, then: (§2) The stock solutions of tested compounds were diluted with culture medium. […] MTT working solution of 20 µl (5 mg/ml) was then added to each well and incubated for another 4 h. At the end of incubation, the medium were carefully removed, and 200 µl of DMSO was added. The optical density at 490 and 630 nm was then measured with a microplate reader (Model 680, Bio-Rad). […] The IC50 values were calculated with Origin 7.5 software, and standard deviations of the IC50 values were obtained from at least three independent experiments.

The next experiment deals with Calu-3 cells. Kind of experiment: MTT antiproliferative assay. The format is cell-based. As to conditions: Homo sapiens, Calu-3, 48 h, read-out: Antiproliferative activity IC50, Calu-3. The method, then: as §2
The test system of another experiment is Colo205 cells. Kind of experiment: MTT antiproliferative assay. Conditions: Homo sapiens, COLO 205, 48 h, read-out: Antiproliferative activity IC50, Colo205. The format is cell-based. The method, then: as §2
Experiment [1] has as its system HepG2 cells. The experiment in a line: MTT antiproliferative assay. The experiment is classed as cell-based. The method, then:
as §2

A further experiment relates to LoVo cells. Kind of experiment: MTT antiproliferative assay. Conditions: Homo sapiens, 48 h, read-out: Antiproliferative activity IC50, LoVo. The experiment is classed as cell-based. As for the experimental part: as §2
In another experiment the test system is MCF-7 cells. Kind of experiment: MTT antiproliferative assay. The experiment is classed as cell-based. Conditions: Homo sapiens, MCF7, 48 h, read-out: Antiproliferative activity IC50, MCF-7. As for the experimental part: as §2
In another experiment the test system is MDA-MB-231 cells. The experiment in a line: MTT antiproliferative assay. The format is cell-based. Conditions: Homo sapiens, MDA-MB-231, 48 h, read-out: Antiproliferative activity IC50, MDA-MB-231. As for the experimental part:
as §2

For a further experiment, the system named is MDA-MB-468 cells. Kind of experiment: MTT antiproliferative assay. The experiment is classed as cell-based. As to conditions: Homo sapiens, MDA-MB-468, 48 h, read-out: Antiproliferative activity IC50, MDA-MB-468. The method, then:
as §2

For another experiment, the system named is MKN45 cells. Kind of experiment: MTT antiproliferative assay. The experiment is classed as cell-based. Conditions: Homo sapiens, MKN-45, 48 h, read-out: Antiproliferative activity IC50, MKN45. The method, then:
as §2

For the next experiment, the system named is PNAC-1 cells. The experiment in a line: MTT antiproliferative assay. The experiment is classed as cell-based. Conditions: 48 h, read-out: Antiproliferative activity IC50, PNAC-1. As for the experimental part: as §2
The subject of the next experiment is SKOV3 cells. The experiment in a line: MTT antiproliferative assay. The experiment is classed as cell-based. As to conditions: Homo sapiens, SK-OV-3, 48 h, read-out: Antiproliferative activity IC50, SKOV3. As for the experimental part: as §2
A further experiment has as its system U937 cells. The experiment in a line: MTT antiproliferative assay. As to conditions: Homo sapiens, U-937, 48 h, read-out: Antiproliferative activity IC50, U937. The format is cell-based. The method, then:
as §2

Experiment [2] deals with HepG2 cells. Kind of experiment: Cell cycle assay (PI staining, flow cytometry). Conditions: 6 h; for HepG2 cells at the G2/M phase: control 21.24%; for HepG2 cell population at the G0/G1 phase: control 55.60%. The format is cell-based. As for the experimental part: Cells were then washed twice with cold phosphate-buffered saline (PBS) and fixed in 70% precooled ethanol at 4°C for 12 h. After the fixation, cells were washed again with PBS and stained with PI/RNase A for 30 min at room temperature and eventually subjected to flow cytometry (CytoFLEX, Beckman Coulter) for cell cycle distribution determination.

The test system of experiment [3] is HepG2 cells. Kind of experiment: Annexin V-FITC/PI apoptosis detection (flow cytometry). The format is cell-based. As to conditions: 24 h, control 3.52%. The method, then:
Cells were then washed with PBS, collected, resuspended with binding buffer from the annexin V-FITC kit (Thermo Fisher Co., USA) and then added with 5 µl of annexin V-FITC and mixed gently. After 10 min of incubation, 1 µl of PI was added to each sample and mixed gently. After incubation at room temperature for another 20 min in the dark, cells were subjected to flow cytometry (CytoFLEX, Beckman Coulter).
In general terms: A flow cytometer gives signals particle by particle.

Another experiment has as its system cleaved caspase-3. Kind of experiment: Western blot in HepG2 cells. The format is cell-based. Conditions: 1 µM, 24 h, compared with SAHA. As for the experimental part:
(§3) Protein sample concentrations were determined with Brandford assay. Thirty micrograms of each sample was subjected to sodium dodecyl sulfate–polyacrylamide gel electrophoresis (SDS-PAGE). After electrophoresis, proteins were transferred to polyvinylidene difluoride (PVDF) membrane (Millipore) and blocked with 5% fat-free dry milk in 1 × Tris-buffered saline (TBST) for 2 h at room temperature. Membranes were then probed with corresponding antibodies at 4°C overnight. Cleaved caspase-3 (#9661), caspase-3 (#9662), cleaved caspase-9 (#9505), caspase-9 (#9508), phospho-cdc2 (#4539), and cdc2 (#77055) antibodies were obtained from Cell Signaling Technology (Danvers, MA). Expression of human β-actin was detected with anti-β-actin antibody (Proteintech, Rosemont, IL) as a loading control. The membranes were then incubated with horseradish peroxidase (HRP)-conjugated secondary antibody (Santa Cruz, CA) and visualized with enhanced chemiluminescence (ECL)-detecting reagents (ComWin Biotech Co., Beijing, China).
On the technique in general: Immunoblotting shows a protein as a band on a membrane.

A further experiment deals with cleaved caspase-9. Kind of experiment: Western blot in HepG2 cells. The experiment is classed as cell-based. Conditions: 1 µM, 24 h, compared with SAHA. As for the experimental part: as §3
Another experiment concerns phosphorylated cdc2. The experiment in a line: Western blot in HepG2 cells. The format is cell-based. Conditions: 1 µM, 24 h, compared with SAHA. As for the experimental part: as §3
Where [4] appears, read: more potent than SAHA, ratio of IC50 values.

T1 sequence (Q13547 whole entry): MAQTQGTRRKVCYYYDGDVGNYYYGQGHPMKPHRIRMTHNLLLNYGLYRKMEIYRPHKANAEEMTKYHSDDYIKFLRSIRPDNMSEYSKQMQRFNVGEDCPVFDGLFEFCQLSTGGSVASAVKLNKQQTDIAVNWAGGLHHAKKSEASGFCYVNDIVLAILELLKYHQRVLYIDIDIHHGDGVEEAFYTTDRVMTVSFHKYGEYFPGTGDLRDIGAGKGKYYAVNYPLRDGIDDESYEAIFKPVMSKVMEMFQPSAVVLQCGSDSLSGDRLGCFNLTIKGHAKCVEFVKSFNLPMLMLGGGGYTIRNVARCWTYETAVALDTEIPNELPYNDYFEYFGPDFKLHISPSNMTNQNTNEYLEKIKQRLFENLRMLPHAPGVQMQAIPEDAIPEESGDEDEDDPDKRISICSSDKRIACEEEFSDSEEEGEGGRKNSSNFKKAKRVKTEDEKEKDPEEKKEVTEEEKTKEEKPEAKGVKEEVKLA
T5 sequence (P56524 whole entry): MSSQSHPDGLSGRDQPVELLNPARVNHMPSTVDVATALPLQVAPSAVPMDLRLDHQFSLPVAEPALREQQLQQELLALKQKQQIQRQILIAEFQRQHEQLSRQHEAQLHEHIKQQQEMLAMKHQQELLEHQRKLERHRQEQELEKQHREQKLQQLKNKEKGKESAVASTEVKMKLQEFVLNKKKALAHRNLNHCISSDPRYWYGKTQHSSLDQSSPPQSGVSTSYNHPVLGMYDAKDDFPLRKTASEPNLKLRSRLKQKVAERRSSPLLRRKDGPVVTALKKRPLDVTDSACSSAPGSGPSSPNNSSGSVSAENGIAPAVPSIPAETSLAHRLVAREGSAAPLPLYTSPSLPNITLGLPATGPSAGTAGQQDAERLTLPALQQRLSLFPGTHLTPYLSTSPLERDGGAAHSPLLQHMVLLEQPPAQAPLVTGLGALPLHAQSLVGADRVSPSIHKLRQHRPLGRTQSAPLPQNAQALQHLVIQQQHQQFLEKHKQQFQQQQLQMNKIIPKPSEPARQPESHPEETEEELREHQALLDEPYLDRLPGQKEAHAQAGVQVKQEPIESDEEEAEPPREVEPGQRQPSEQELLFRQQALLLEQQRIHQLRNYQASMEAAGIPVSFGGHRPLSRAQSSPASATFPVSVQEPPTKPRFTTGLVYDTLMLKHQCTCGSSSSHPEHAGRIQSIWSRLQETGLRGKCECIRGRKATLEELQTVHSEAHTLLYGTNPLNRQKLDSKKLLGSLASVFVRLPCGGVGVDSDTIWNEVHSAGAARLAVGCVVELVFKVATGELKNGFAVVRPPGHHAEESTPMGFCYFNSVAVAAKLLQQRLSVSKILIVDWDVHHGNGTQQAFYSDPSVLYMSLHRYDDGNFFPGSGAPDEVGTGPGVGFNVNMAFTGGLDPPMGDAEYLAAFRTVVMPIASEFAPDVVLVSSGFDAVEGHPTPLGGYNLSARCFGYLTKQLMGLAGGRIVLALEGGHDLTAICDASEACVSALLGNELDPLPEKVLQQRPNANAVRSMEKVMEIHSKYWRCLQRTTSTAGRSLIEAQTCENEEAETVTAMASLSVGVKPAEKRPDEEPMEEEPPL
T2 sequence (Q8WUI4 whole entry): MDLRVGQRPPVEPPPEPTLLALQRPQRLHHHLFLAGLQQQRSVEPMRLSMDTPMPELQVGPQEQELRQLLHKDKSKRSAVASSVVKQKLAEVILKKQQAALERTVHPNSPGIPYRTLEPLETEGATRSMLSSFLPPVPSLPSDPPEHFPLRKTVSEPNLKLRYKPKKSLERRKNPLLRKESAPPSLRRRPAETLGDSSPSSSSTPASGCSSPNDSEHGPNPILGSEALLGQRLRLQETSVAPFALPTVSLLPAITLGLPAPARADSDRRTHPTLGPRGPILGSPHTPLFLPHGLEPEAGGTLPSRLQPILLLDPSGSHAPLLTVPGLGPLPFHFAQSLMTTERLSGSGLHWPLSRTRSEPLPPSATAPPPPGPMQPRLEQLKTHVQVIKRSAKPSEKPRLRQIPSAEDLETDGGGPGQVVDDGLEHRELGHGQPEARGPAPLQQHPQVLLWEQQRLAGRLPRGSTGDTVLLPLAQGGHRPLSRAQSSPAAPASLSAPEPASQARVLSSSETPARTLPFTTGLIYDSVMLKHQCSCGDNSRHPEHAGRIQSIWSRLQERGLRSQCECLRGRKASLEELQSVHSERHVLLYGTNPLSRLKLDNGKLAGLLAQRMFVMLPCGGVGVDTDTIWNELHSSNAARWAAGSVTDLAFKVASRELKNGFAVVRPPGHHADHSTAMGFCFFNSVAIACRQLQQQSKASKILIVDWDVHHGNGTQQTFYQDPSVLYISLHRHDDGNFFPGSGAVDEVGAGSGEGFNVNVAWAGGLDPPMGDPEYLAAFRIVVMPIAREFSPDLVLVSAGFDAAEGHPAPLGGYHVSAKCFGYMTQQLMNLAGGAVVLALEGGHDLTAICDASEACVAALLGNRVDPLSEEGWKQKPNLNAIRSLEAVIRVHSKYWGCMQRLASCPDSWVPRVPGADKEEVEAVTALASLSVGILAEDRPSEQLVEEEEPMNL
T4 sequence (O15379 whole entry): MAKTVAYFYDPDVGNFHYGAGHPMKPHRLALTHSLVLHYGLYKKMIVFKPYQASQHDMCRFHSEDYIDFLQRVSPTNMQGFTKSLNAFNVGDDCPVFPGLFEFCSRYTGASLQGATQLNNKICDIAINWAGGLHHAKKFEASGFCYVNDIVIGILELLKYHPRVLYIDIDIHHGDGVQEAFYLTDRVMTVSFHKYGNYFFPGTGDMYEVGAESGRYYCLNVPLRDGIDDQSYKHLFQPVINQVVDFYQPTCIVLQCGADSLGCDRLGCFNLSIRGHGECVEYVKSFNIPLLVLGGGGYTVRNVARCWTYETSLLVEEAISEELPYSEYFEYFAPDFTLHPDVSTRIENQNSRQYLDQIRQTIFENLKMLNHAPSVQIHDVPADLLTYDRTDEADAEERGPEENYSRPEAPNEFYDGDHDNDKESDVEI
T4 sequence (Q9Y618 395-489 partner limits assumed): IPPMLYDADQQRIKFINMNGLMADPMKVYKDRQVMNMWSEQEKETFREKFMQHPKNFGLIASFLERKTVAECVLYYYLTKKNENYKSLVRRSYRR
T3 sequence (Q92769 whole entry): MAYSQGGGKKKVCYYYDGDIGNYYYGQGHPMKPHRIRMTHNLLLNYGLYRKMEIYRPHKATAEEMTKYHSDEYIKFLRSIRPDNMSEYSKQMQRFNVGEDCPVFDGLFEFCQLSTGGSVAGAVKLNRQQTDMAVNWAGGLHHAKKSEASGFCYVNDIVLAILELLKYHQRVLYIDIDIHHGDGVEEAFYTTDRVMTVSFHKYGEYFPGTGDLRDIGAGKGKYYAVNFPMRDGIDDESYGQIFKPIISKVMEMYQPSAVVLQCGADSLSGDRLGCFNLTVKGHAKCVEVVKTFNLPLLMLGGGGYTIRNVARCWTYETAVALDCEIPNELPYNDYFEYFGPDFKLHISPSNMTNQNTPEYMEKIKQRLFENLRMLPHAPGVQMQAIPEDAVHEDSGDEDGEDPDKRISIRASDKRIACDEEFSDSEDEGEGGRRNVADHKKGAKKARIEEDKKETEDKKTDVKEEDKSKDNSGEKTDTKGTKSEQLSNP
T7 sequence (Q9BY41 whole entry): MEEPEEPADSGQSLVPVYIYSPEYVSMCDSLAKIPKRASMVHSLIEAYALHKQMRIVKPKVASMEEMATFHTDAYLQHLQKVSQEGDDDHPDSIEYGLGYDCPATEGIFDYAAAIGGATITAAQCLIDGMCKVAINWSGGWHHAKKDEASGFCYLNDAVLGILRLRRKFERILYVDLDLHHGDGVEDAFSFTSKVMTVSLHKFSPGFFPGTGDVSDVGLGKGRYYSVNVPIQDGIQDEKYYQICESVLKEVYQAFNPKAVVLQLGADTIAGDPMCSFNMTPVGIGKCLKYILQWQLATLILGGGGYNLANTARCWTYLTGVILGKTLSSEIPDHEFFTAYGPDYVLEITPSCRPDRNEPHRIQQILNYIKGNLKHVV
T8 sequence (Q9UKV0 whole entry): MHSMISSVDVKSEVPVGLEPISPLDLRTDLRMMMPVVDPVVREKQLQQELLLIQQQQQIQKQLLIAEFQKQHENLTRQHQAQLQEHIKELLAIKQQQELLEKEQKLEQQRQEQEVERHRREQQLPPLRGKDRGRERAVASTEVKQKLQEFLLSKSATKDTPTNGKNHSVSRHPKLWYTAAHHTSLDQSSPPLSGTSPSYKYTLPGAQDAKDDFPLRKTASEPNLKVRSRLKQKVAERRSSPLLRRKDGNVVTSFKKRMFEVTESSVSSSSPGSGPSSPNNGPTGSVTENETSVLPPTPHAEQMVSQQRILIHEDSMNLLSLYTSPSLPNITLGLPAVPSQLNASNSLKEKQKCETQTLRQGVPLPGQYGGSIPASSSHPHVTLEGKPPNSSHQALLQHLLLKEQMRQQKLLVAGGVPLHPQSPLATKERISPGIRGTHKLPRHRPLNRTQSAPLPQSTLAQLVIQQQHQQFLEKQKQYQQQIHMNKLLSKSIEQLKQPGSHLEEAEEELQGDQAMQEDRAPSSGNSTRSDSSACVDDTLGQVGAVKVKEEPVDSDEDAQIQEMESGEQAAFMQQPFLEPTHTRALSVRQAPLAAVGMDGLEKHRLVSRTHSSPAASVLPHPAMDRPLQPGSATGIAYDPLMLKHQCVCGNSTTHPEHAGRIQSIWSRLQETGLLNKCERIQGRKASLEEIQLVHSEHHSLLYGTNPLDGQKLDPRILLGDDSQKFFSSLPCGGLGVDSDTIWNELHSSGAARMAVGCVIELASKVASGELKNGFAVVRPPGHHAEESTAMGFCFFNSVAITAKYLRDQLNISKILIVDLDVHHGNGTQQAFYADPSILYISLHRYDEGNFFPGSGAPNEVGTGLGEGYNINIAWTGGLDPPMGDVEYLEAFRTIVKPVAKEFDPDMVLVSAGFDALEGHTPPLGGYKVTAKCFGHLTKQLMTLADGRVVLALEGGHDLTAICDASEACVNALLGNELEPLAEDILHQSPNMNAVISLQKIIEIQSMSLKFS

For `Nc1ccccc1NC(=O)c1ccc(N(CCCl)CCCl)cc1` [NA, N-(2-Aminophenyl)-4-(bis(2-chloroethyl)amino)benzamide], the IC50 (in general, the concentration needed to halve the response being measured) at HDAC1 (n ≥ 2, SD <10% of the mean, read-out: Enzyme inhibitory activity IC50, HDAC1) is 0.0952 µM; on HDAC7 it was greater than 5 µM; at HDAC2, 0.261 µM; at HDAC3, 0.256 µM; against HDAC4 it was greater than 5 µM; on HDAC6, greater than 5 µM. Moreover, the IC50 is greater than 5 µM at HDAC8; greater than 5 µM against HDAC9; 2.66 µM in the experiment on A2780 cells; 14.7 µM with A549 cells; 5.81 µM with Calu-3 cells; 33.8 µM in the experiment with Colo205 cells. In addition, the IC50 with HepG2 cells [1] (Homo sapiens, HepG2, 48 h, read-out: Antiproliferative activity IC50, HepG2) was found to be 1.73 µM; with LoVo cells it was 10.4 µM; in the experiment with MCF-7 cells, 18.7 µM; in the experiment on MDA-MB-231 cells it was 7.64 µM; in the experiment with MDA-MB-468 cells it was 6.33 µM; in the experiment on MKN45 cells it was 14.3 µM. Further, the IC50 in the experiment on PNAC-1 cells is 8.52 µM; with SKOV3 cells, 3.91 µM; with U937 cells it was 1.21 µM. Further, on HDAC1 (ratio of IC50 values, HDAC1 versus HDAC2), the “HDAC1 selectivity versus HDAC2” value is 2.74 fold. The “HDAC1 selectivity versus HDAC3” value on HDAC1 (ratio of IC50 values, HDAC1 versus HDAC3) worked out at 2.69 fold. Also, the “Potency relative to SAHA, A2780 cell growth inhibition” value with A2780 cells (setting [4]) amounted to 10.3 fold. Further, the “Potency relative to SAHA, HepG2 cell growth inhibition” value in the experiment on HepG2 cells [1] (setting [4]) is reported as 11.3 fold. Besides, the figures for the “HepG2 cells at the G2/M phase” value in the experiment with HepG2 cells [2] (1 µM), in the experiment with HepG2 cells [2] (3 µM) and in the experiment with HepG2 cells [2] (9 µM) were 25.98%, 35.05% and 38.89%, respectively. In addition, the “HepG2 cell population at the G0/G1 phase” value in the experiment with HepG2 cells [2] (1 µM) was found to be 48.64%; in the experiment with HepG2 cells [2] (3 µM), 41.61%; in the experiment on HepG2 cells [2] (9 µM) it was 37.19%. In addition, the “Percentage of apoptotic HepG2 cells” value in the experiment with HepG2 cells [3] (1 µM) was 9.15%; in the experiment on HepG2 cells [3] (3 µM), 18.07%; in the experiment with HepG2 cells [3] (9 µM), 37.39%. Besides, the “Protein expression level of cleaved caspase-3” value in the experiment on cleaved caspase-3 is recorded as “remarkedly increased”. Besides, the “Protein expression level of cleaved caspase-9” value in the experiment on cleaved caspase-9 is “remarkedly increased”. For the same compound, in the experiment on phosphorylated cdc2, the “Phosphorylation of cdc2” value is “up-regulated”.

As for `O=C(CCCCCCC(=O)Nc1ccccc1)NO` [SAHA, Suberoylanilide hydroxamic acid, reference compound], the IC50 in the experiment on A2780 cells came to 27.3 µM. For the same compound, the “Effect on the population of HepG2 cells at the G0/G1 phase (in words)” value in the experiment with HepG2 cells [2] (1, 3, and 9 µM) is “no significant effects”. In addition, the results for the “Percentage of apoptotic HepG2 cells” value in the experiment on HepG2 cells [3] (1 µM), with HepG2 cells [3] (3 µM) and in the experiment on HepG2 cells [3] (9 µM) were 4.52%, 6.24% and 20.32%, respectively.
